From patent publication US9630964B2, “Fluoro-9-methyl-β-carbolines” (priority 2013, dated 2017)

What was measured:
[1] = system: BTG2 (B-cell translocation gene 2); test: Quantitative RT-PCR, relative gene expression of BTG2 in SH-SY5Y cells; assay type: cell-based, human; conditions: 10 μM 6F9MβC, except after 2-day exposition
Description: SH-SY5Y cell lines, which were provided by the institute of human genetics of university hospital Eppendorf and which they in turn received from Braunschweig resource center, were used again for the RT-PCR experiments (reverse transcriptase polymerase chain reaction) carried out for this purpose.
The cells were incubated in MEM (Minimum essential medium, Life Technologies) with 10% FCS (fetal calf serum, Biochrom AG) and penicillin/streptomycin (Biochrom AG). The cells were seeded with a density of 1×10^5 cells/cm^2 in 25 cm^2 cell culture bottles (Falcon, cell culture treated) with 5 mL medium. […]
The RNA-isolation was done with the HighPure RNA Isolation kit of the company Roche. […] The concentration of RNA was measured with nanoDrop spectrometer and the RNA integrity was determined with the aid of the Bioanalyzer 2100 (Agilent). […]
After the reaction, this run was diluted 1:4 and thereof 2 μL per each quantitative RT-PCR were used. This was performed in a LightCycler 480 under standard conditions in the SybrGreen format with annealing temperatures determined for each primer individually. […]
The specificity was verified by melting curve analysis and subsequent gel electrophoresis. For each PCR the PCR efficiency and the Cq value was determined by the program LinRegPCR and these were used in further calculations. […]

hearing threshold = test: Acoustically evoked potentials: hearing threshold after acoustic trauma; assay type: in vivo; conditions: guinea pig, total 0.18 mg per ear
Description: To trigger an acoustic trauma, guinea pigs were anesthetized with 60 mg/kg ketamine and 8 mg/kg xylazine. Then Bepanten ointment (Bayer) was administered to the eyes and the animal was put in a soundproof chamber. A calibrated speaker was placed directly above the head of the animal, wherein it was set to emit a half octave band, centered around 8 kHz, with a volume of 110 dB for duration of 30 minutes.
As measure for evaluation of the hearing threshold of the guinea pig acoustically evoked potentials were measured. Therefore, the electrophysiological activity of the nerve cells in the brain stem that forward impulses from the inner ear was derived after sonication of the ear with 8, 11.3, 16, 22.6 and 32 kHz. The sonification was carried out ascendingly from 0 dB to 90 dB in single steps of 5 dB.
The measurement was carried out 3 days before the acoustic trauma (D-3), 30 minutes after the acoustic trauma (D0) as well as 14 days after the acoustic trauma (D14).
Per animal one ear was not treated and used as intra-individual control (hierin partly abbreviated to “contr.”) and the second ear was treated with 6-fluoro-9-methyl-β-carboline. Therefore, one hour after the acoustic trauma a dose of 0.12 mg 6-fluoro-9-methyl-β-carboline (in a hydrogel as vehicle) was administered intratympanically. 3 days after the acoustic trauma a further intratympanic administration of 0.06 mg 6-fluoro-9-methyl-β-carboline was carried out. The measurements were conducted on four guinea pigs (n=4).
Afterwards, the remaining shift of hearing threshold (also named as permanent shift of hearing threshold) was determined from the measured values before the acoustic trauma (D-3) and after 14 days (D14). From the measured values directly after the acoustic trauma (D0) and after 14 days (D14) the recovery from the trauma (D0-D14) was also determined.
Analogous to the above performed experiments with 6-fluoro-9-methyl-β-carboline, also corresponding experiments with 9-methyl-β-carboline were performed. The experimental procedure was nearly identical, wherein of course 9-methyl-β-carboline instead of 6-fluoro-9-methyl-β-carboline was used. The total dose of 9-methyl-β-carboline was here 0.2 mg and 0.35 mg per ear, respectively.

Cn1c2ccc(F)cc2c2ccncc21 [6F9MβC, 6-fluoro-9-methyl-β-carboline]
BTG2 expression compared to the highest concentration of 9MβC [1]: comparable
improved recovery of hearing threshold (D0-D14) vs untreated ear (hearing threshold; 8 kHz): approximately 5 dB
improved recovery of hearing threshold (D0-D14) vs untreated ear (hearing threshold; 11.3 kHz): ~25 dB
reduction of the hearing threshold (permanent shift D14-D-3) vs untreated control (hearing threshold; 11.3 kHz): approximately 20 dB
improved recovery of hearing threshold (D0-D14) vs untreated ear (hearing threshold; 16 kHz): ~20 dB
reduction of the hearing threshold (permanent shift D14-D-3) vs untreated control (hearing threshold; 16 kHz): ~30 dB
